As usually defined, the IC50 is the concentration that inhibits the measured activity by half.

The assay deals with KRasG12C (M1-K169, biotinylated on the N-terminus) (Homo sapiens (Human), UniProt P01116, G12C). The experiment in a line: Covalent competition assay: scintillation proximity assay (SPA) quantifying covalent modification of KRASG12C. Type of assay: binding. Particulars: competition with radiolabeled covalent probe (Compound B/Compound A), 2 hours incubation, 10 nM KRasG12C. The essentials: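 Scintillation proximity readout after streptavidin bead capture (30 min) of biotinylated KRasG12C(M1-K169):GDP, 10 nM final, which was covalently labelled over 2 h by 25 nM radio-probe plus 475 nM cold probe unless blocked by compound.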
Consider `C=CC(=O)N1CC2(CC(n3nc(N4CCn5nccc5C4(C)C)c(-c4c(Cl)c(C)cc5[nH]ncc45)c3C)C2)C1` (single isomer, unassigned) [Example 101a, 1-(6-(4-(5-chloro-6-methyl-1H-indazol-4-yl)-3-(4,4-dimethyl-6,7-dihydropyrazolo[1,5-a]pyrazin-5(4H)-yl)-5-methyl-1H-pyrazol-1-yl)-2-azaspiro[3.3]heptan-2-yl)prop-2-en-1-one], for which the IC50 was more than 50000 nM.
As for `C=CC(=O)N1CC2(CC(n3nc(N4CCC(CN5CCS(=O)(=O)CC5)CC4(C)C)c(-c4c(Cl)c(Cl)cc5[nH]ncc45)c3C)C2)C1` (single isomer, unassigned) [Example 235a, 1-(6-(4-(5,6-dichloro-1H-indazol-4-yl)-3-(4-((1,1-dioxidothiomorpholino)methyl)-2,2-dimethylpiperidin-1-yl)-5-methyl-1H-pyrazol-1-yl)-2-azaspiro[3.3]heptan-2-yl)prop-2-en-1-one], the IC50 stood at 932 nM.
Consider `C=CC(=O)N1CC2(CC(n3nc(N4CCN(C(C)=O)CC4(C)C)c(-c4c(C)c(C)cc5[nH]ncc45)c3C)C2)C1` (single isomer, unassigned) [Example 1b, 1-(6-(3-(4-Acetyl-2,2-dimethylpiperazin-1-yl)-4-(5,6-dimethyl-1H-indazol-4-yl)-5-methyl-1H-pyrazol-1-yl)-2-azaspiro[3.3]heptan-2-yl)prop-2-en-1-one], for which the IC50 was found to be 10700 nM.
With `C=CC(=O)N1CC2(CC(n3nc(N4CCn5ccnc5C4(C)C)c(-c4c(Cl)c(C)cc5[nH]ncc45)c3C)C2)C1` (single isomer, unassigned) [Example 23b, 1-(6-(4-(5-chloro-6-methyl-1H-indazol-4-yl)-3-(8,8-dimethyl-5,6-dihydroimidazo[1,2-a]pyrazin-7(8H)-yl)-5-methyl-1H-pyrazol-1-yl)-2-azaspiro[3.3]heptan-2-yl)prop-2-en-1-one], the IC50 amounted to 634 nM.
`C=CC(=O)N1CC2(CC(n3nc(N4CCN(C(C)=O)CC4(C)C)c(-c4c(C)c(C)cc5[nH]ncc45)c3C)C2)C1` (single isomer, unassigned) [Example 1a, 1-(6-(3-(4-Acetyl-2,2-dimethylpiperazin-1-yl)-4-(5,6-dimethyl-1H-indazol-4-yl)-5-methyl-1H-pyrazol-1-yl)-2-azaspiro[3.3]heptan-2-yl)prop-2-en-1-one]: the concentration for half-maximal inhibition (IC50) stood at 86 nM.
As for `C=CC(=O)N1CC2(CC(n3nc(N4CCN(C(C)=O)CC4)c(-c4c(Cl)ccc5[nH]ncc45)c3C)C2)C1C` (single isomer, unassigned) [Example 196a, 1-(6-(3-(4-acetylpiperazin-1-yl)-4-(5-chloro-1H-indazol-4-yl)-5-methyl-1H-pyrazol-1-yl)-1-methyl-2-azaspiro[3.3]heptan-2-yl)prop-2-en-1-one], the IC50 was more than 50000 nM.
Next, `C=CC(=O)N1CC2(CC(n3nc(N4CCN(c5ccnnc5)C[C@]4(C)CC)c(-c4c(Cl)c(C)cc5[nH]ncc45)c3C)C2)C1` (single isomer, unassigned) [Example 192a]: more than 5000 nM; `C=CC(=O)N1CC2(CC(n3nc(N4CCN(C[C@@H]5COCCO5)CC45CCC5)c(-c4c(Cl)c(Cl)cc5[nH]ncc45)c3C)C2)C1` (single isomer, unassigned) [Example 171b]: 8 nM; `C=CC(=O)N1CC2(CC(n3nc(N4CCOCC4(C)C)c(-c4c(Cl)c(C)cc5[nH]ncc45)c3C)C2)C1` (single isomer, unassigned) [Example 22b, 1-(6-(4-(5-chloro-6-methyl-1H-indazol-4-yl)-3-(3,3-dimethylmorpholino)-5-methyl-1H-pyrazol-1-yl)-2-azaspiro[3.3]heptan-2-yl)prop-2-en-1-one]: 113 nM.
Consider `C=CC(=O)N1CC2(CC(n3nc(N4CCC(N5C[C@H](OC)[C@H](OC)C5)CC4(C)C)c(-c4c(Cl)c(C)cc5[nH]ncc45)c3C)C2)C1` (single isomer, unassigned) [Example 102a], for which the IC50 was more than 5000 nM.
Turning to `C=CC(=O)N1CC2(CC(n3nc(N4CCN(CCO)CC45CCC5)c(-c4c(Cl)c(C)cc5[nH]ncc45)c3C)C2)C1` (single isomer, unassigned) [Example 162b, 1-(6-(4-(5-chloro-6-methyl-1H-indazol-4-yl)-3-(8-(2-hydroxyethyl)-5,8-diazaspiro[3.5]nonan-5-yl)-5-methyl-1H-pyrazol-1-yl)-2-azaspiro[3.3]heptan-2-yl)prop-2-en-1-one], the IC50 was 27 nM.
As for `C=CC(=O)N1CC2(CC(n3nc(N4CCN(c5cnn(C)c5)CC4(C)C)c(-c4c(Cl)c(C)cc5[nH]ncc45)c3C)C2)C1` (single isomer, unassigned) [Example 193a, 1-(6-(4-(5-Chloro-6-methyl-1H-indazol-4-yl)-3-(2,2-dimethyl-4-(1-methyl-1H-pyrazol-4-yl)piperazin-1-yl)-5-methyl-1H-pyrazol-1-yl)-2-azaspiro[3.3]heptan-2-yl)prop-2-en-1-one], the IC50 came out at 20800 nM.
`C=CC(=O)N1CC2(CC(n3nc(N4CCC(CN5CCOCC5)C4(C)C)c(-c4c(Cl)c(Cl)cc5[nH]ncc45)c3C)C2)C1` (single isomer, unassigned) [Example 219a, 1-(6-(4-(5,6-dichloro-1H-indazol-4-yl)-3-(2,2-dimethyl-3-(morpholinomethyl)pyrrolidin-1-yl)-5-methyl-1H-pyrazol-1-yl)-2-azaspiro[3.3]heptan-2-yl)prop-2-en-1-one]: the 50% inhibitory concentration (IC50) was determined as 1600 nM.
Regarding `C=CC(=O)N1CC2(CC(n3nc(N4CC[C@@H](CN5C[C@@H]6CS(=O)(=O)C[C@@H]6C5)CC4(C)C)c(-c4c(Cl)c(Cl)cc5[nH]ncc45)c3C)C2)C1` (single isomer, unassigned) [Example 294a], the IC50 was found to be 4700 nM.
Next, `C=CC(=O)N1CC2(CC(n3nc(N4CCCC4(C)C)c(-c4c(Cl)c(C)cc5[nH]ncc45)c3C)C2)C1` (single isomer, unassigned) [Example 88a, 1-(6-(4-(5-chloro-6-methyl-1H-indazol-4-yl)-3-(2,2-dimethylpyrrolidin-1-yl)-5-methyl-1H-pyrazol-1-yl)-2-azaspiro[3.3]heptan-2-yl)prop-2-en-1-one]: more than 5000 nM.
For `C=CC(=O)N1CC2(CC(n3nc(N4CCN(C(C)=O)CC4)c(-c4c(C)c(C)cc5[nH]ncc45)c3C)C2)C1` (single isomer, unassigned) [Example 2a, 1-(6-(3-(4-acetylpiperazin-1-yl)-4-(5,6-dimethyl-1H-indazol-4-yl)-5-methyl-1H-pyrazol-1-yl)-2-azaspiro[3.3]heptan-2-yl)prop-2-en-1-one], the concentration for half-maximal inhibition (IC50) was more than 50000 nM.
On to `C=CC(=O)N1CC2(CC(n3nc(N4CCCCC45CN(C(C)=O)C5)c(-c4c(Cl)c(C)cc5[nH]ncc45)c3C)C2)C1` (single isomer, unassigned) [Example 66b, 1-(6-(3-(2-acetyl-2,5-diazaspiro[3.5]nonan-5-yl)-4-(5-chloro-6-methyl-1H-indazol-4-yl)-5-methyl-1H-pyrazol-1-yl)-2-azaspiro[3.3]heptan-2-yl)prop-2-en-1-one], for which the IC50 is 2200 nM.
As for `C=CC(=O)N1CC2(CC(n3nc(N4CCN(C5CCOCC5)C[C@]4(C)C(F)F)c(-c4c(Cl)c(C)cc5[nH]ncc45)c3C)C2)C1` (single isomer, unassigned) [Example 151a], the IC50 was determined as 46 nM.
Then `C=CC(=O)N1CC2(CC(n3nc(N4CCN(C5CCOCC5)CC4(C)C)c(-c4c(Cl)c(Cl)cc5[nH]ncc45)c3C)C2)C1` (single isomer, unassigned) [Example 140b, 1-(6-(4-(5,6-dichloro-1H-indazol-4-yl)-3-(2,2-dimethyl-4-(tetrahydro-2H-pyran-4-yl)piperazin-1-yl)-5-methyl-1H-pyrazol-1-yl)-2-azaspiro[3.3]heptan-2-yl)prop-2-en-1-one], with 18 nM; and `C=CC(=O)N1CC2(CC(n3nc(N4CCN(C5CCOC5)CC45CCC5)c(-c4c(Cl)c(C)cc5[nH]ncc45)c3C)C2)C1` (single isomer, unassigned) [Example 132d, 1-(6-(4-(5-chloro-6-methyl-1H-indazol-4-yl)-5-methyl-3-(8-(tetrahydrofuran-3-yl)-5,8-diazaspiro[3.5]nonan-5-yl)-1H-pyrazol-1-yl)-2-azaspiro[3.3]heptan-2-yl)prop-2-en-1-one], with 29 nM.
Then `C=CC(=O)N1CC2(CC(n3nc(N4CC[C@@H](CN5C[C@H](O)C[C@@H](F)C5)CC4(C)C)c(-c4c(Cl)c(Cl)cc5[nH]ncc45)c3C)C2)C1` (single isomer, unassigned) [Example 300a, 1-(6-(4-(5,6-dichloro-1H-indazol-4-yl)-3-((R)-4-(((3R*,5R*)-3-fluoro-5-hydroxypiperidin-1-yl)methyl)-2,2-dimethylpiperidin-1-yl)-5-methyl-1H-pyrazol-1-yl)-2-azaspiro[3.3]heptan-2-yl)prop-2-en-1-one], with more than 5000 nM; and `C=CC(=O)N1CC2(CC(n3nc(N4CCN(CCOC)CC45CCC5)c(-c4c(Cl)c(Cl)cc5[nH]ncc45)c3C)C2)C1` (single isomer, unassigned) [Example 76a, 1-(6-(4-(5,6-dichloro-1H-indazol-4-yl)-3-(8-(2-methoxyethyl)-5,8-diazaspiro[3.5]nonan-5-yl)-5-methyl-1H-pyrazol-1-yl)-2-azaspiro[3.3]heptan-2-yl)prop-2-en-1-one], with 351 nM; and `C=CC(=O)N1CC2(CC(n3nc(N4CCC(N5C[C@@H]6C[C@H]5CO6)CC4(C)C)c(-c4c(Cl)c(C)cc5[nH]ncc45)c3C)C2)C1` (single isomer, unassigned) [Example 83a], with more than 5000 nM.
Regarding `C=CC(=O)N1CC2(CC(n3nc(N4CC[C@@H](CN5CCOC6CS(=O)(=O)CC65)CC4(C)C)c(-c4c(Cl)c(Cl)cc5[nH]ncc45)c3C)C2)C1` (single isomer, unassigned) [Example 265b, 1-(6-(4-(5,6-dichloro-1H-indazol-4-yl)-3-((R)-4-(((4aR*,7aS*)-6,6-dioxidohexahydro-4H-thieno[3,4-b][1,4]oxazin-4-yl)methyl)-2,2-dimethylpiperidin-1-yl)-5-methyl-1H-pyrazol-1-yl)-2-azaspiro[3.3]heptan-2-yl)prop-2-en-1-one], the half-maximal inhibitory concentration (IC50) amounted to 9 nM.

(Values after patent publication US20240317721A1, “PYRAZOLYL DERIVATIVES AS INHIBITORS OF THE KRAS MUTANT PROTEIN” (NOVARTIS AG, priority 2021, published 2024).)
